Tests used:
[1] = system: NO secretion by BV-2 cell line; assay: NO secretion by LPS/IFN-γ-activated BV-2 cells (Griess Reagent System); assay type: cell-based, Mouse
Description: Step 1: BV-2 cells in the exponential growth phase were collected, and viable cells were counted using a Vi-Cell XR cell counter. The cell suspension was adjusted to an appropriate concentration with the culture medium. 160 μL of cell suspension was added to each well of a 96-well cell culture plate, resulting in a final cell concentration of 12,000 cells per well. The culture plate was incubated for 24 hours in a 37° C., 5% CO2 incubator.
Step 2: A 10 mM DMSO compound stock solution was diluted at a ratio of 1:4 using DMSO to prepare a series of 1000× test compound solutions. These 1000× test compound solutions were further diluted at a ratio of 1:100 using cell culture medium to prepare a series of 10× test compound solutions. Finally, the 96-well plate that had been plated with cells the day before was taken out. According to the experimental well plate loading design, 20 μL of the corresponding 10× solution was added to each well, with three duplicate wells for each drug concentration. The final concentrations of the test compounds used in the experiment (i.e., 1× solutions) have a range of 10, 2.5, 0.625, 0.156, 0.0391, 0.0098, and 0.0024 μM. The final DMSO concentration in each well was 0.1%.
After the compound was added, the 96-well plate was incubated for half an hour in the 37° C., 5% CO2 incubator.
After the pre-incubation was completed, 20 μL of culture medium containing 100 ng/mL LPS and 100 ng/mL IFN-γ (final concentrations of 10 ng/mL LPS and 10 ng/mL IFN-7) was added to each well to induce the activation of BV-2 cells. The culture plate was then incubated for 24 hours in the 37° C., 5% CO2 incubator.
Step 3: After 24 hours of treatment with the compound, the culture plate was centrifuged at 1200 rpm for 5 minutes. The supernatant was pipetted into another plate, which was sealed with tinfoil and stored at −20° C. for future ELISA and Griess reagent system assays. The cell culture plate from which the supernatant had been removed was immediately used for cell proliferation assays using the CellTiter-Glo (CTG) method.
Step 5 (NO and CCL5 detection): The CCL5 levels in the supernatant were detected using an ELISA kit (Mouse CCL5/RANTES DuoSet ELISA; R&D; DY478-05), following the instructions provided with the kit. The nitric oxide (NO) levels in the supernatant were detected using the Griess Reagent System (Promega; G2930), following the instructions provided with the kit.
Step 1: Firstly, the optical density values obtained from ELISA and Griess tests were used to plot a standard curve and calculate the absolute concentrations of each sample. The absolute concentration was then calibrated using the CTG fluorescence value corresponding to each sample to obtain the calibrated concentration. The formula for calculating the calibrated concentration was: calibrated concentration=absolute concentration/CTG fluorescence value of the same sample.
Step 2: Based on the calibrated concentration of each sample, the relative percentage of CCL5 or NO secretion (i.e., CCL5 production (%) or NO production (%)) at each test concentration relative to the blank (DMSO) group was calculated. The formula for calculating the relative percentage was: relative percentage %=(calibrated concentration of the test concentration group)/(calibrated concentration of the blank group).
Step 3: Finally, the relative percentage of CCL5 secretion or the relative percentage of NO secretion was plotted against the logarithm of the compound concentration. […]

rat primary astrocytes = assay: Cell viability (CCK-8) in NMO-IgG induced astrocyte injury model; assay type: cell-based
[2] = system: MOG35-55-induced EAE mouse spinal cord; assay: EAE mouse model, spinal cord H&E and LFB pathological scoring; assay type: in vivo, C57BL/6 mice; details: day 28
Description: For each group consisting of 5 mice, euthanasia was performed followed by cardiac perfusion with saline. Subsequently, an equal volume of 10% formalin was perfused. Spinal cord tissues from the mice were collected, soaked in […], and then sectioned. Hematoxylin & Eosin (H&E) staining and Luxol Fast Blue (LFB) staining were performed, along with pathological scoring.
At the end of the experiment, the spinal cords of mice were collected, with 2 in the normal control group and 5 in each of the remaining groups. The spinal cords were fixed in formalin, followed by paraffin embedding and sectioning. Two sections were taken from each mouse and subjected to H&E and FLB staining for pathological observation. Scoring was done for cell infiltration, lesion areas, and demyelination. […] Specifically, after H&E staining of the mouse spinal cord, cell infiltration (A) and lesion area (B) in the spinal cord sections were counted. After LFB staining, the degree of demyelination (C) in the spinal cord sections was scored. Data were presented as mean±standard error of the mean (mean±SEM). *p<0.05, **p<0.01, ***p<0.001, ****p<0.0001, vs. vehicle control group (Vehicle), one-way ANOVA.

[3] = system: STAT3 phosphorylation (p-STAT3/STAT3) in spinal cord; assay: EAE mouse model, STAT3 phosphorylation in spinal cord (Western blot); assay type: in vivo, C57BL/6 mice; details: for inhibition rate of STAT3 phosphorylation in spinal cord: day 28
[4] = Rattus norvegicus, Astrocyte, 24 h, read-out: Cell viability percentage, Mean

CN(c1ncnc2[nH]ccc12)[C@@H]1CCc2cc(C#N)nn2C1 [Compound I]
Maximum inhibition rate on NO secretion by BV-2 ([1]; 24 h co-incubation, up to 10 μM): 100% | IC50 ([1]; Mus musculus, BV-2, 24 h co-incubation, read-out: IC50 on NO secretion by BV-2): 487 nM | inhibitory effect on cell viability (rat primary astrocytes; 24 h co-incubation, highest test concentration 20 μM): no inhibitory effect on cell viability | viability at 0.027 µM (rat primary astrocytes; [4]): 112% | viability at 0.247 µM (rat primary astrocytes; [4]): 105% | viability at 2.222 µM (rat primary astrocytes; [4]): 99.7% | viability at 20 µM (rat primary astrocytes; [4]): 99.4% | cell infiltration, lesion area and demyelination compared with Fingolimod ([2]; 10 mg/kg BID): significantly better therapeutic effect than the positive drug Fingolimod group | damage to the spinal cord caused by EAE modeling ([2]; all doses (3, 10, 20 mg/kg BID, 20 mg/kg QD)): significantly inhibited the damage to the spinal cord | inhibition rate of STAT3 phosphorylation in spinal cord ([3]; 10 mg/kg BID): 86% | inhibition rate of STAT3 phosphorylation in spinal cord ([3]; 20 mg/kg BID): 86% | STAT3 phosphorylation in spinal cord ([3]; all dose groups, day 28, 0.25 h after administration): significantly inhibited the level of STAT3 phosphorylation in spinal cord
